In PMC5394527 (Journal of Medicinal Chemistry, 2017):
Read-outs that look alike come from different tables or passages of the source. Each block holds one molecule with its values, some of them ahead of it.

Tests used:
SJSA-1 cancer cell line [1] = assay: cells; details: Homo sapiens, SJSA-1, read-out: SJSA-1 IC50, cell growth inhibition
[2] = test system: RS4;11 acute lymphoblastic leukemia xenograft; details: for antitumor activity in RS4;11 xenograft model: mice
[3] = test system: p53 activation (MDM2, p53, p21, cleaved PARP, cleaved caspase-3) in SJSA-1 tumors; details: mice, single oral dose 100 mg/kg
[4] = test system: SJSA-1 osteosarcoma tumor xenograft; details: for weight loss of mice during the experiment: SJSA-1 xenograft experiment, 30 or 100 mg/kg daily for 14 days; for antitumor activity in SJSA-1 xenograft model: mice; for antitumor efficacy (regression): last line of Table 6, SJSA-1 xenograft model in mice
[5] = test system: SJSA-1 osteosarcoma tumor xenograft; details: mice; cited from earlier work
SJSA-1 cancer cell line [6] = details: cited from earlier work
MDM2 = MDM2 (Homo sapiens, UniProt Q00987)
[7] = cited from earlier work
[8] = oral 30 mg/kg daily for 14 days
[9] = oral gavage 100 mg/kg daily for 14 days

Sequence of MDM2 (Q00987 whole entry): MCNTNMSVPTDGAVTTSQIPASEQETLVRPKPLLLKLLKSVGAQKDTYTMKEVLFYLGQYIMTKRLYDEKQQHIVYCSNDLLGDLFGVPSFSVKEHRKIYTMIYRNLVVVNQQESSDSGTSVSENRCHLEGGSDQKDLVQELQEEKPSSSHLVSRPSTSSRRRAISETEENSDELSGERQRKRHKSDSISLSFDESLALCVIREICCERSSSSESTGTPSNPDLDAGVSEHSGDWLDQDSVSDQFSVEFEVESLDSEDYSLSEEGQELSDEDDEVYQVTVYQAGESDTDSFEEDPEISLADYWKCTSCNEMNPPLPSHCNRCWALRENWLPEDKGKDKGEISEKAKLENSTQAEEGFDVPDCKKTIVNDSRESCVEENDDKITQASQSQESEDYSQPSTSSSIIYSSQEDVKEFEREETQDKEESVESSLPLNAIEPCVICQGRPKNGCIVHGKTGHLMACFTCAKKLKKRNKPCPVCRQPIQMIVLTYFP

IC50 (SJSA-1 cancer cell line [1]): > 2000 nM
Structure (SMILES): CN1[C@@H](c2nc(CC(=O)O)cs2)[C@H](c2cccc(Cl)c2F)[C@]2(C(=O)Nc3cc(Cl)ccc32)C12CCCCC2 [Compound 27, 2-(2-((3′R,4′S,5′R)-6″-Chloro-4′-(3-chloro-2-fluorophenyl)-1′-methyl-2″-oxodispiro[cyclohexane-1,2′-pyrrolidine-3′,3″-indolin]-5′-yl)thiazol-4-yl)acetic Acid]

decomposition (after 2 days in cell culture media, UPLC): < 1%
Structure (SMILES): O=C(N[C@H]1CC[C@H](O)CC1)[C@@H]1NC2(CCCCC2)[C@@]2(C(=O)Nc3cc(Cl)ccc32)[C@H]1c1cccc(Cl)c1F [Compound 6, (3′R,4′S,5′R)-6″-Chloro-4′-(3-chloro-2-fluorophenyl)-N-((1r,4R)-4-hydroxycyclohexyl)-2″-oxodispiro[cyclohexane-1,2′-pyrrolidine-3′,3″-indoline]-5′-carboxamide]
antitumor activity in SJSA-1 xenograft model [5]: strong tumor growth inhibition but not complete tumor regression
IC50 (SJSA-1 cancer cell line [6]; read-out: SJSA-1 cell growth inhibition IC50): 190 nM

no appreciable binding to MDM2 up to (MDM2): > 2 µM
Structure (SMILES): CNC(=O)[C@@H]1NC2(CCNCC2)[C@@]2(C(=O)Nc3cc(Cl)ccc32)[C@H]1c1cccc(Cl)c1F [Compound 8, (3R,4′S,5′R)-6-Chloro-4′-(3-chloro-2-fluorophenyl)-N-methyl-2-oxodispiro[indoline-3,3′-pyrrolidine-2′,4″-piperidine]-5′-carboxamide]

stability in solution (CH3CN/H2O, MeOH/H2O or cell culture media, 2 days): can decompose in solution
Structure (SMILES): O=C(N[C@H]1CC[C@H](C(=O)O)CC1)[C@@H]1NC2(CCCCC2)[C@@]2(C(=O)Nc3cc(Cl)ccc32)[C@H]1c1cccc(Cl)c1F [Compound 33, (1R,4r)-4-((3′R,4′S,5′R)-6″-Chloro-4′-(3-chloro-2-fluorophenyl)-2″-oxodispiro[cyclohexane-1,2′-pyrrolidine-3′,3″-indoline]-5′-carboxamido)cyclohexane-1-carboxylic Acid]
antitumor activity in SJSA-1 xenograft model [4, 9]: effectively retard tumor growth, it failed to achieve tumor regression

weight loss of mice during the experiment [4]: no or minimal weight loss
Structure (SMILES): O=C(NC12CCC(C(=O)O)(CC1)CC2)[C@@H]1NC2(CCCCC2)[C@@]2(C(=O)Nc3cc(Cl)ccc32)[C@H]1c1cccc(Cl)c1F [Compound 56, 4-((3′R,4′S,5′R)-6″-Chloro-4′-(3-chloro-2-fluorophenyl)-2″-oxodispiro[cyclohexane-1,2′-pyrrolidine-3′,3″-indoline]-5′-carboxamido)bicyclo[2.2.2]octane-1-carboxylic Acid]
apoptosis induction (cleavage of PARP and caspase-3) in SJSA-1 xenograft tumor tissue [3]: no cleavage of PARP and caspase-3
antitumor efficacy (regression) [4]: no regression

weight loss of mice during the experiment [4]: no or minimal weight loss
Structure (SMILES): CN1[C@@H](C(=O)NC23CCC(C(=O)O)(CC2)CC3)[C@H](c2cccc(Cl)c2F)[C@]2(C(=O)Nc3cc(Cl)ccc32)C12CCCCC2 [Compound 59, 4-((3′R,4′S,5′R)-6″-Chloro-4′-(3-chloro-2-fluorophenyl)-1′-methyl-2″-oxodispiro[cyclohexane-1,2′-pyrrolidine-3′,3″-indoline]-5′-carboxamido)bicyclo[2.2.2]octane-1-carboxylic Acid]
persistence of p53 activation in SJSA-1 xenograft tumor tissue [3]: 24 h
antitumor activity in SJSA-1 xenograft model [4, 8]: effectively inhibits tumor growth
antitumor activity in SJSA-1 xenograft model [4, 9]: complete and long-lasting tumor regression

Second part, the molecule before the results:

Structure (SMILES): CCN1[C@@H](C(=O)NC23CCC(C(=O)O)(CC2)CC3)[C@H](c2cccc(Cl)c2F)[C@]2(C(=O)Nc3cc(Cl)ccc32)C12CCCCC2 [Compound 60, 4-((3′R,4′S,5′R)-6″-Chloro-4′-(3-chloro-2-fluorophenyl)-1′-ethyl-2″-oxodispiro[cyclohexane-1,2′-pyrrolidine-3′,3″-indoline]-5′-carboxamido)bicyclo[2.2.2]octane-1-carboxylic Acid]
antitumor activity in RS4;11 xenograft model ([2]; 200 mg/kg weekly dosing for 3 weeks): partial tumor regression
tolerability in RS4;11 xenograft experiment ([2]; mice, 50, 75, 100 mg/kg daily or 200 mg/kg weekly): well tolerated at all doses and schedules
antitumor activity in RS4;11 xenograft model ([2]; oral 100 mg/kg daily for 14 days): partial tumor regression
persistence of p53 activation in SJSA-1 xenograft tumor tissue [3]: 24 h
weight loss of mice during the experiment [4]: no or minimal weight loss
antitumor activity in SJSA-1 xenograft model [4, 8]: effectively inhibits tumor growth
antitumor activity in SJSA-1 xenograft model [4, 9]: complete and long-lasting tumor regression
chemical stability in solutions (1:1 CH3CN/H2O, 1:1 MeOH/H2O, cell culture media, 7 days): very stable in solutions for a period of 7 days

Structure (SMILES): CC(C)(C)C[C@@H]1N[C@@H](C(=O)N[C@H]2CC[C@H](O)CC2)[C@H](c2cccc(Cl)c2F)[C@]12C(=O)Nc1cc(Cl)ccc12 [Compound 2, reference compound]
apoptosis induction (cleavage of PARP and caspase-3) in SJSA-1 xenograft tumor tissue [3]: induce strong apoptosis
p53 activation (MDM2, p53, p21 levels) in SJSA-1 xenograft tumor tissue [3]: robust activation of p53
antitumor activity in SJSA-1 xenograft model [4, 9]: complete tumor regression
purity retained (in solutions after 7 days (slow isomerization)): 93–96%

Structure (SMILES): O=C(O)[C@@H]1NC2(CCCCC2)[C@@]2(C(=O)Nc3cc(Cl)ccc32)[C@H]1c1cccc(Cl)c1F [Compound 29]
IC50 (SJSA-1 cancer cell line [6]; read-out: SJSA-1 IC50, cell growth inhibition): > 10000 nM

Structure (SMILES): CS(=O)(=O)NC(=O)C12CCC(NC(=O)[C@@H]3NC4(CCCCC4)[C@@]4(C(=O)Nc5cc(Cl)ccc54)[C@H]3c3cccc(Cl)c3F)(CC1)CC2 [Compound 58, (3′R,4′S,5′R)-6″-Chloro-4′-(3-chloro-2-fluorophenyl)-N-(4-((methylsulfonyl)carbamoyl)-bicyclo[2.2.2]octan-1-yl)-2″-oxodispiro[cyclohexane-1,2′-pyrrolidine-3′,3″-indoline]-5′-carboxamide]
apoptosis induction (cleavage of PARP and caspase-3) in SJSA-1 xenograft tumor tissue [3]: modest effect on activation of p53 and induction of cleavage of PARP and caspase-3

Structure (SMILES): CC1(C)CCC2(CC1)N[C@@H](C(=O)Nc1ccc(C(=O)O)cc1)[C@H](c1cccc(Cl)c1F)[C@]21C(=O)Nc2cc(Cl)ccc21 [Compound 54, 4-((3′R,4′S,5′R)-6″-Chloro-4′-(3-chloro-2-fluorophenyl)-4,4-dimethyl-2″-oxodispiro[cyclo-hexane-1,2'-pyrrolidine-3′,3″-indoline]-5'-carboxamido)benzoic Acid]
antitumor efficacy (regression) [4]: 87% regression
antitumor activity in SJSA-1 xenograft model ([4]; oral gavage 50 mg/kg daily for 14 days): effectively retards tumor growth

Structure (SMILES): O=C(NC12CCC(C(=O)O)(CC1)CC2)[C@@H]1NC2(CCC(F)(F)CC2)[C@@]2(C(=O)Nc3cc(Cl)ccc32)[C@H]1c1cccc(Cl)c1F [Compound 57, 4-((3′R,4′S,5′R)-6″-Chloro-4′-(3-chloro-2-fluorophenyl)-4,4-difluoro-2″-oxodispiro[cyclohexane-1,2′-pyrrolidine-3′,3″-indoline]-5′-carboxamido)bicyclo[2.2.2]octane-1-carboxylic Acid]
apoptosis induction (cleavage of PARP and caspase-3) in SJSA-1 xenograft tumor tissue [3]: modest effect on activation of p53 and induction of cleavage of PARP and caspase-3

Structure (SMILES): O=C(O)c1ccc(NC(=O)[C@@H]2NC3(CCCCC3)[C@@]3(C(=O)Nc4cc(Cl)ccc43)[C@H]2c2cccc(Cl)c2F)cc1 [Compound 39]
stability in solution [7]: very stable in solution
antitumor activity in SJSA-1 xenograft model [5]: partial tumor regression
